Entries after “also recorded” stand apart in the source; their conditions may differ. Square brackets hold non-standard residues; d marks the D form. Peptide text beside a SMILES is read from it. d2Nal = N[C@H](Cc1ccc2ccccc2c1)C(=O)O
Columns and labels:
[1] = test system: rat model of acetic acid induced bladder irritation; assay: Rat model of acetic acid induced bladder irritation (Example 2); format: in vivo; details: for bladder capacity, pre-treatment: Example 2, pre-treatment prior to acetic acid application; for micturition pressure: Example 2, FIG. 3, after start of acetic acid infusion; for intercontraction interval (ICI): Example 2, FIG. 1, i.v. after acetic acid, Aspirin 10 mg/kg; for intercontraction interval (ICI) / bladder capacity: Icatibant 0.2, 1 and 5 mg/kg, Oxybutynin 1 mg/kg, R-715 1 mg/kg; for bladder capacity: Example 2, FIG. 2, i.v. after acetic acid, aspirin 10 mg/kg
Method: Groups of 5 female Wistar rats weighing 250 to 300 g anesthetized with urethane 1.2 g/kg i.p. in 5 ml/kg were used. A polyethylene catheter (PE50) was implanted into the bladder for saline or acetic acid infusion through a 3 way stopcock to which a pressure transducer is connected for measurements of bladder pressure (mm Hg). Saline at 37° C. was infused into the bladder at a constant rate until cystometrography stabilized in 60 minutes. Subsequently, 0.2% acetic acid was infused into the urinary bladder. […] The following parameters were measured continuously during baseline and for up to 1 hour post-dosing: bladder capacity (μl), intercontraction interval (ICI, in minutes, time between two voiding cycles), micturition pressure (mm Hg), micturition volume (ml, derived from the weight of excreted urine measured by a balance placed below the rat) and blood pressure (mm Hg). [table] Paired Student's test was applied for comparison between the time before (baseline) and after test substance or with vehicle treatment. To signify differences between test substance and vehicle control groups, Dunnett's test or unpair Student t test was used. Differences are considered significant at P<0.05 level.

[2] = test system: rat model of acetic acid induced bladder irritation; assay: Rat model of acetic acid induced bladder irritation (Example 1); format: in vivo
Method: Groups of 5 female Wistar rats weighing 250 to 300 g anesthetized with urethane 1.2 g/kg i.p. in 5 ml/kg were used. A polyethylene catheter (PE50) was implanted into the bladder for saline or acetic acid infusion through a 3 way stopcock to which a pressure transducer is connected for measurements of bladder pressure (mm Hg). Saline at 37° C. was infused into the bladder at a constant rate until cystometrography becomes stable. Thereafter, instillation of 0.2% acetic acid into the urinary bladder was initiated. […] The following parameters were measured continuously for 1 hour after treatment was started: intercontraction interval (ICI, minutes, defined as the time between two voiding cycles), threshold pressure (mmHg), bladder capacity (ml), micturition volume (ml), and micturition pressure (mmHg). Micturition volume is derived from the weight of excreted urine measured by a balance placed below the rat.
Paired Student's test was applied for comparison between the time before and after test substance or with vehicle treatment. To signify differences between test substance and vehicle control group, Dunnett's test was used. Differences are considered significant at P<0.05.

[3] = molecular target: T1, guinea pig B2 receptors (Cavia porcellus, UniProt O70526); details: human INT407 cells; cited from earlier work
T1 construct: host or cells: human INT407 cells
T1 sequence (O70526 1-372): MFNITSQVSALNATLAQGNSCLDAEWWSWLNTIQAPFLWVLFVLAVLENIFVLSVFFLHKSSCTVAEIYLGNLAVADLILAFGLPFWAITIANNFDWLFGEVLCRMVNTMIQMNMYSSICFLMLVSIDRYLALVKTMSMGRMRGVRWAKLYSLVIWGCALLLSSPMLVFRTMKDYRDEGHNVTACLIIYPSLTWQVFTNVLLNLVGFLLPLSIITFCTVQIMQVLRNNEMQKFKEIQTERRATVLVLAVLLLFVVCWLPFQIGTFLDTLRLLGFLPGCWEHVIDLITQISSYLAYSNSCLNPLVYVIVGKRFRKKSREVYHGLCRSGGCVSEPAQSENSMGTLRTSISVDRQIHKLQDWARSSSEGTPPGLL

Compound | bladder capacity, pre-treatment [1] | micturition pressure [1] | intercontraction interval (ICI) [1] | bladder capacity [1] | also measured
COc1cc(CNC(=O)CCCC/C=C/C(C)C)ccc1O [Capsaicin] | completely blocks the acetic acid induced decrease of bladder capacity |  |  |  | intercontraction interval (ICI), Capsaicin pre-treatment ([1]; Example 2, 25 mg/kg and 50 mg/kg s.c., 4 days prior to experiment): inhibition of the acetic acid—triggered ICI—decrease
CC[C@H](C)[C@H](NC(=O)[C@@H](Cc1ccc2ccccc2c1)NC(=O)[C@H](CO)NC(=O)[C@H](Cc1ccccc1)NC(=O)CNC(=O)[C@@H]1CCCN1C(=O)[C@@H]1CCCN1C(=O)[C@H](CCCN=C(N)N)NC(=O)[C@H](CCCCN)NC(C)=O)C(=O)O [R-715, H-Ac-Lys-Arg-Pro-Pro-Gly-Phe-Ser-D-Nal-Ile-OH] (Ac-KRPPGFS[d2Nal]I-OH) |  | without any change |  |  | 
CC(=O)Oc1ccccc1C(=O)O [Aspirin] |  |  | increases | increases the bladder capacity until reaching the baseline levels | 
CC[C@H](C)[C@H](NC(=O)[C@@H](Cc1ccc2ccccc2c1)NC(=O)[C@H](CO)NC(=O)[C@H](Cc1ccccc1)NC(=O)CNC(=O)[C@@H]1CCCN1C(=O)[C@@H]1CCCN1C(=O)[C@H](CCCNC(=N)N)NC(=O)[C@H](CCCCN)NC(C)=O)C(=O)O [R-715, H-Ac-Lys-Arg-Pro-Pro-Gly-Phe-Ser-D-Nal-Ile-OH] (Ac-KRPPGFS[d2Nal]I-OH) |  |  | becomes effective over the study time as well but positive effects on ICI are delayed; also recorded: doubling | increases the bladder capacity until reaching the baseline levels; also recorded: tripling | 
CCN(CC)CC#CCOC(=O)C(O)(c1ccccc1)C1CCCCC1 (stereo not drawn) [Oxybutynin, 4-diethylaminio-2-butynyl phenylcyclohexyglycolate] |  |  | if any, only slight positive effects | no significant effects | 
NC(N)=NCCC[C@@H](N)C(=O)N[C@@H](CCCN=C(N)N)C(=O)N1CCC[C@H]1C(=O)N1C[C@H](O)C[C@H]1C(=O)NCC(=O)N[C@@H](Cc1cccs1)C(=O)N[C@@H](CO)C(=O)N1Cc2ccccc2C[C@@H]1C(=O)N1[C@H](C(=O)N[C@@H](CCCN=C(N)N)C(=O)O)C[C@@H]2CCCC[C@@H]21 [Icatibant, H-D-Arg-Arg-Pro-Hyp-Gly-Thi-Ser-D-Tic-Oic-Arg-OH] | completely blocks the acetic acid induced decrease of bladder capacity | without any change | increases; also recorded: doubling | increases the bladder capacity until reaching the baseline levels; also recorded: tripling | intercontraction interval (ICI) ([2]; Example 1, FIG. 1, in comparison to the vehicle group, i.v. after start of acetic acid infusion): dose-dependently increases; bladder capacity ([2]; Example 1, FIG. 2, in comparison to the vehicle group, i.v. after start of acetic acid infusion): dose-dependently increases; micturition pressure ([2]; Example 1, FIG. 3, i.v. after start of acetic acid infusion): no decrease; bladder capacity ([2]; Example 1 summary, 1 mg/kg): doubling; interval between two micturition contractions ([2]; Example 1 summary, 1 mg/kg): doubling; micturition pressure ([2]; Example 1 summary, 1 mg/kg): without any change; reversal of acetic acid induced detrusor instabilities ([2]; rat, 1 mg/kg i.v.): able to reverse; intercontraction interval (ICI), pre-treatment ([1]; Example 2, 1 mg/kg i.v. 30 minutes prior to intravesical acetic acid infusion): strongly inhibits decrease of ICI; lowest dose at which maximal effects on ICI were reached ([1]; Example 2, i.v. after acetic acid): 0.2 mg/kg; acetic acid induced bladder dysfunction, pre-treatment ([1]; Example 2 summary, pre-treatment before acetic acid): complete inhibition; inhibition of BK-mediated inositol phosphate generation [3]: efficiently inhibited

From patent US20080221039A1, “Kinin Antagonists For Treating Bladder Dysfunction” (priority 2005, published 2008)
